Common to all, as to type: cell-based
One experiment deals with Brettanomyces sp SUN08. Kind of experiment: Antimicrobial activity (MIC), Brettanomyces sp SUN08. Conditions: potato dextrose broth pH 3.8, visual evaluation, read-out: Minimal Inhibitory Concentration (MIC).
Experiment [1] concerns Candida albicans ATCC10231. Kind of experiment: Antimicrobial activity (MIC), Candida albicans ATCC10231. Conditions: potato dextrose broth pH 3.8, visual evaluation, read-out: Minimal Inhibitory Concentration (MIC).
Experiment [2] deals with Leuconostoc lactis DSM 20202. Kind of experiment: Antimicrobial activity (MIC), Leuconostoc lactis DSM 20202. Particulars: DSM20202, potato dextrose broth pH 3.8, visual evaluation, read-out: Minimal Inhibitory Concentration (MIC).
In experiment [3] the test system is Malassezia furfur DSM 6170. Kind of experiment: Antimicrobial activity (MIC), Malassezia furfur DSM 6170. Particulars: DSM6170, potato dextrose broth pH 3.8, visual evaluation, read-out: Minimal Inhibitory Concentration (MIC).
Experiment [4] has as its system Zygosaccharomyces rouxii DSM 7525. The experiment in a line: Antimicrobial activity (MIC), Zygosaccharomyces rouxii DSM 7525. Conditions: DSM7525, potato dextrose broth pH 3.8, visual evaluation, read-out: Minimal Inhibitory Concentration (MIC).
Experiment [5] relates to Candida parapsilosis SUN05. The experiment in a line: Antimicrobial activity (MIC), Candida parapsilosis SUN05. Particulars: Lodderomyces parapsilosis, potato dextrose broth pH 3.8, visual evaluation, read-out: Minimal Inhibitory Concentration (MIC).
The test system of experiment [6] is Zygosaccharomyces bailli SUN02. Kind of experiment: Antimicrobial activity (MIC), Zygosaccharomyces bailli SUN02. Conditions: potato dextrose broth pH 3.8, visual evaluation, read-out: Minimal Inhibitory Concentration (MIC).
For a further experiment, the system named is Asaia siamensis SUN03. Kind of experiment: Antimicrobial activity (MIC), Asaia siamensis SUN03. Particulars: potato dextrose broth pH 3.8, visual evaluation; for MIC: read-out: Minimal Inhibitory Concentration (MIC).
Experiment [7] relates to Clostridium sporogenes ATCC19404. Kind of experiment: Antimicrobial activity (MIC), Clostridium sporogenes ATCC19404. Particulars: potato dextrose broth pH 3.8, visual evaluation, read-out: Minimal Inhibitory Concentration (MIC). The protocol: Compounds are dissolved at a concentration of 20 mg/mL using 100% DMSO. • Preculture: yeast and bacteria are plated on potato dextrose agar, resuspended in potato dextrose broth and CFU via OD measurement determined; adjusting CFU of the strain in PDB pH 3.8 • Preculture: for mycel forming fungi spores were directly used after thawing of cryopreserved stocks of known titre • Final titre used for the assay: Yeast strains 5*10^3 CFU/ml, Bacteria 1*10^6 CFU/ml, Fungi (spores) 5*10^4 CFU/ml • Potato dextrose broth pH 3.8 was used as assay matrix • 500 ppm (0.05%) of the compounds were screened (final DMSO 2.5% (v/v)) • Volume: 100 μl in 96-well format • Positive controls: potassium sorbate, sodium benzoate & triclosan • 28° C. to 30° C., static incubation • Incubation time depending on spoilage organism between 2 and 8 days • Visual evaluation (per eye, for fungi with binocular magnification)

The subject of experiment [8] is Corynebacterium xerosis DSM 20743. Kind of experiment: Antimicrobial activity (MIC), Corynebacterium xerosis DSM 20743. Particulars: DSM20743, potato dextrose broth pH 3.8, visual evaluation, read-out: Minimal Inhibitory Concentration (MIC).
Experiment [9] deals with Saccharomyces cerevisiae SUN01. Kind of experiment: Antimicrobial activity (MIC), Saccharomyces cerevisiae SUN01. Particulars: potato dextrose broth pH 3.8, visual evaluation, read-out: Minimal Inhibitory Concentration (MIC).
Experiment [10] concerns Saccharomyces cerevisiae DSM 2548. Kind of experiment: Antimicrobial activity (MIC), Saccharomyces cerevisiae DSM 2548. Particulars: DSM2548, potato dextrose broth pH 3.8, visual evaluation, read-out: Minimal Inhibitory Concentration (MIC).
The test system of experiment [11] is Neosartorya fischeri SUN09. Kind of experiment: Antimicrobial activity (MIC), Neosartorya fischeri SUN09. Particulars: Aspergillus fischeri, potato dextrose broth pH 3.8, visual evaluation, read-out: Minimal Inhibitory Concentration (MIC).
The subject of experiment [12] is Yarrowia lipolytica DSM 70561. Kind of experiment: Antimicrobial activity (MIC), Yarrowia lipolytica DSM 70561. Particulars: DSM70561, potato dextrose broth pH 3.8, visual evaluation, read-out: Minimal Inhibitory Concentration (MIC).
For experiment [13], the system named is Bacillus subtilis ATCC 6633. The experiment in a line: Antimicrobial activity (MIC), Bacillus subtilis ATCC 6633. Particulars: ATCC6633, potato dextrose broth pH 3.8, visual evaluation, read-out: Minimal Inhibitory Concentration (MIC).
Experiment [14] relates to Zygosaccharomyces bailii DSM 70834. Kind of experiment: Antimicrobial activity (MIC), Zygosaccharomyces bailii DSM 70834. Conditions: DSM70834, potato dextrose broth pH 3.8, visual evaluation, read-out: Minimal Inhibitory Concentration (MIC).
The subject of experiment [15] is Lactobacillus paracasei ssp. paracasei DSM 46331. Kind of experiment: Antimicrobial activity (MIC), Lactobacillus paracasei ssp. paracasei DSM 46331. Particulars: Lacticaseibacillus paracasei, DSM46331, potato dextrose broth pH 3.8, visual evaluation, read-out: Minimal Inhibitory Concentration (MIC).
Experiment [16] deals with Leuconostoc mesenteroides DSM 20343. Kind of experiment: Antimicrobial activity (MIC), Leuconostoc mesenteroides DSM 20343. Conditions: DSM20343, potato dextrose broth pH 3.8, visual evaluation, read-out: Minimal Inhibitory Concentration (MIC).
Another experiment relates to Penicillium paneum SUN04. The experiment in a line: Antimicrobial activity (MIC), Penicillium paneum SUN04. Conditions: potato dextrose broth pH 3.8, visual evaluation, read-out: Minimal Inhibitory Concentration (MIC).
The test system of experiment [17] is Enterococcus faecalis ATCC 7080. The experiment in a line: Antimicrobial activity (MIC), Enterococcus faecalis ATCC 7080. Particulars: ATCC7080, potato dextrose broth pH 3.8, visual evaluation, read-out: Minimal Inhibitory Concentration (MIC).
Experiment [18] relates to Saccharomyces cerevisiae SUN06. The experiment in a line: Antimicrobial activity (MIC), Saccharomyces cerevisiae SUN06. Particulars: potato dextrose broth pH 3.8, visual evaluation, read-out: Minimal Inhibitory Concentration (MIC).
Experiment [19] deals with Zygosaccharomyces bailli SUN07. Kind of experiment: Antimicrobial activity (MIC), Zygosaccharomyces bailli SUN07. Conditions: potato dextrose broth pH 3.8, visual evaluation, read-out: Minimal Inhibitory Concentration (MIC).
In experiment [20] the test system is Byssochlamys fulva DSM 1808. The experiment in a line: Antimicrobial activity (MIC), Byssochlamys fulva DSM 1808. Conditions: Paecilomyces fulvus, DSM1808, potato dextrose broth pH 3.8, visual evaluation, read-out: Minimal Inhibitory Concentration (MIC).
The test system of a further experiment is Byssochlamys nivea SUN10. The experiment in a line: Antimicrobial activity (MIC), Byssochlamys nivea SUN10. Particulars: Paecilomyces niveus, potato dextrose broth pH 3.8, visual evaluation, read-out: Minimal Inhibitory Concentration (MIC).
Experiment [21] relates to Alicyclobacillus acidoterrestris DSM 2498. The experiment in a line: Antimicrobial activity (MIC), Alicyclobacillus acidoterrestris DSM 2498. Conditions: DSM2498, potato dextrose broth pH 3.8, visual evaluation, read-out: Minimal Inhibitory Concentration (MIC).
Experiment [22] has as its system Dekkera naardenensis CBS 6115. Kind of experiment: Antimicrobial activity (MIC), Dekkera naardenensis CBS 6115. Particulars: Brettanomyces naardenensis, CBS6115, potato dextrose broth pH 3.8, visual evaluation, read-out: Minimal Inhibitory Concentration (MIC).
In experiment [23] the test system is Penicillium expansum DSM 62841. The experiment in a line: Antimicrobial activity (MIC), Penicillium expansum DSM 62841. Particulars: DSM62841, potato dextrose broth pH 3.8, visual evaluation, read-out: Minimal Inhibitory Concentration (MIC).
The subject of experiment [24] is Gluconacetobacter liquefaciens DSM 5603. Kind of experiment: Antimicrobial activity (MIC), Gluconacetobacter liquefaciens DSM 5603. Conditions: DSM5603, potato dextrose broth pH 3.8, visual evaluation, read-out: Minimal Inhibitory Concentration (MIC).
Experiment [25] relates to Bacillus licheniformis DSM 13. Kind of experiment: Antimicrobial activity (MIC), Bacillus licheniformis DSM 13. Particulars: DSM13, potato dextrose broth pH 3.8, visual evaluation, read-out: Minimal Inhibitory Concentration (MIC).
Experiment [26] has as its system Aspergillus brasiliensis DSM 1988. The experiment in a line: Antimicrobial activity (MIC), Aspergillus brasiliensis DSM 1988. Particulars: DSM1988, potato dextrose broth pH 3.8, visual evaluation, read-out: Minimal Inhibitory Concentration (MIC).
The test system of experiment [27] is Candida parapsilosis ATCC 20384. Kind of experiment: Antimicrobial activity (MIC), Candida parapsilosis ATCC 20384. Conditions: Lodderomyces parapsilosis, ATCC20384, potato dextrose broth pH 3.8, visual evaluation, read-out: Minimal Inhibitory Concentration (MIC).
Experiment [28] deals with Clostridium perfringens DSM756. The experiment in a line: microbe, parasite or virus in culture. Conditions: DSM756, pH 3.8, read-out: Minimal Inhibitory Concentration (MIC).

Molecules are shown by their SMILES. Values after ≈ are worked out from the molar mass of the structure shown.

Consider `CCCC(O)CC(=O)O[C@H]1[C@H](O[C@H]2[C@H](O)[C@@H](O)[C@H](OCC(O)CCCCCCCCCCCCC(O)C(=O)O)O[C@@H]2COC(C)=O)O[C@H](CO)[C@@H](O)[C@@H]1O` (stereo partly shown) [NP-018217], for which the MIC was ≤ 125 mg/L in the experiment with Brettanomyces sp SUN08; 80 mg/L (≈ 102 µM) in experiment [1]; 250 mg/L (≈ 319 µM) in experiment [2]; 80 mg/L (≈ 102 µM) in [3]; 240 mg/L (≈ 306 µM) in [4]; ≤ 125 mg/L in experiment [5]. Moreover, the MIC in [6] was ≤ 125 mg/L; in the experiment on Asaia siamensis SUN03 it was 500 mg/L (≈ 637 µM); in experiment [7], 80 mg/L (≈ 102 µM); in experiment [8], 240 mg/L (≈ 306 µM); in experiment [9], ≤ 125 mg/L; in experiment [10], 240 mg/L (≈ 306 µM). Besides, the MIC was ≤ 31.2 mg/L in experiment [11]; 240 mg/L (≈ 306 µM) in experiment [12]; 600 mg/L (≈ 764 µM) in experiment [13]; 80 mg/L (≈ 102 µM) in [14]; 80 mg/L (≈ 102 µM) in experiment [15]; 240 mg/L (≈ 306 µM) in experiment [16]. Moreover, the MIC is ≤ 31.2 mg/L with Penicillium paneum SUN04; 240 mg/L (≈ 306 µM) in experiment [17]; ≤ 125 mg/L in [18]; 500 mg/L (≈ 637 µM) in [19]; 80 mg/L (≈ 102 µM) in experiment [20]; ≤ 31.2 mg/L in the experiment on Byssochlamys nivea SUN10. The MIC in [21], in experiment [22] and in [23] was 240 mg/L (≈ 306 µM) throughout.

As for `O=C(O)CCCCCCCCCCCCCC(O)CO[C@@H]1O[C@H](COC(=O)O)[C@@H](O[C@@H]2O[C@H](CO)[C@@H](O)[C@H](O)[C@H]2OC(=O)CC(O)CCO)[C@H](O)[C@H]1O` (stereo partly shown) [NP-018250], the MIC in the experiment on Brettanomyces sp SUN08 was 125 mg/L (≈ 162 µM); in experiment [2], 250 mg/L (≈ 323 µM); in experiment [5], 125 mg/L (≈ 162 µM); in [6] it was 125 mg/L (≈ 162 µM); in the experiment on Asaia siamensis SUN03, ≤ 125 mg/L; in experiment [7] it was 250 mg/L (≈ 323 µM). Besides, the MIC in experiment [9] is 125 mg/L (≈ 162 µM); in experiment [11], 125 mg/L (≈ 162 µM); in experiment [13], 250 mg/L (≈ 323 µM); in the experiment on Penicillium paneum SUN04 it was 125 mg/L (≈ 162 µM); in experiment [24], 250 mg/L (≈ 323 µM); in [17], 250 mg/L (≈ 323 µM). Further, the MIC (in experiment [18]; in [19]; with Byssochlamys nivea SUN10) was 125 mg/L (≈ 162 µM) throughout.

As to `CCCCCC(O)CC(=O)O[C@H]1[C@H](O[C@H]2[C@H](O)[C@@H](O)[C@H](OCC(O)CCCCCCCCCCCCC(O)C(=O)O)O[C@@H]2COC(C)=O)O[C@H](CO)[C@@H](O)[C@@H]1O` (stereo partly shown) [NP-018256], the MIC in the experiment on Brettanomyces sp SUN08 was ≤ 125 mg/L; in experiment [1] it was 80 mg/L (≈ 98.4 µM); in [2], 240 mg/L (≈ 295 µM); in experiment [3], 80 mg/L (≈ 98.4 µM); in experiment [25], 240 mg/L (≈ 295 µM); in [4], 80 mg/L (≈ 98.4 µM). Besides, the MIC in experiment [5] was ≤ 125 mg/L; in [6], ≤ 125 mg/L; in experiment [26], 240 mg/L (≈ 295 µM); in experiment [7], 80 mg/L (≈ 98.4 µM); in [8], 1200 mg/L (≈ 1480 µM); in experiment [9] it was ≤ 125 mg/L. Further, the MIC in [10] is 240 mg/L (≈ 295 µM); in [27] it was 240 mg/L (≈ 295 µM); in experiment [11], ≤ 125 mg/L; in [12], 240 mg/L (≈ 295 µM); in experiment [28], 80 mg/L (≈ 98.4 µM); in experiment [14], 80 mg/L (≈ 98.4 µM). Further, the MIC in experiment [15] was 240 mg/L (≈ 295 µM); in experiment [16], 240 mg/L (≈ 295 µM); in the experiment with Penicillium paneum SUN04, ≤ 125 mg/L; in [18], ≤ 125 mg/L; in experiment [19], 500 mg/L (≈ 615 µM); in the experiment on Byssochlamys nivea SUN10, ≤ 125 mg/L. In addition, the MIC is 240 mg/L (≈ 295 µM) in experiment [21], 80 mg/L (≈ 98.4 µM) in [22] and 240 mg/L (≈ 295 µM) in [23]. The “Minimal Inhibitory Concentration (MIC)” value in the experiment on Asaia siamensis SUN03 is “inact”.

These data come from patent US20260041095A1, “A PRESERVATION METHOD” (AnalytiCon Discovery - Zweigniederlassung der BRAIN Biotech …, priority 2022, published 2026).
